This experiment deals with ROCK2 (Homo sapiens (Human), UniProt O75116). Kind of experiment: ROCK2 assay (peptide phosphorylation, LABCHIP 3000 Reader). Format: biochemical. The conditions noted are these: 5 μM ATP, 1.5 μM peptide substrate. As for the experimental part:
The effectiveness of compounds of the present invention as ROCK inhibitors can be determined in a 30 μL, assay containing 20 mM HEPES, pH 7.5, 20 mM MgCl2, 0.015% Brij-35, 4 mM DTT, 5 μM ATP and 1.5 μM peptide substrate (FITC-AHA-AKRRRLSSLRA-OH). Compounds were dissolved in DMSO so that the final concentration of DMSO was <2%, and the reaction was initiated with Rho kinase variants. After incubation, the reaction was terminated by the addition of EDTA and the phosphorylated and non-phosphorylated peptides separated using a LABCHIP® 3000 Reader (Caliper Life Sciences). […] Compounds were tested in dose-response format, and the inhibition of kinase activity was calculated at each concentration of compound. The inhibition data were fit using a curve-fitting program to determine the IC50; i.e., the concentration of compound required to inhibit 50% of kinase activity.
Representative Examples were tested in the ROCK2 assay described above and found having ROCK2 inhibitory activity.
Chain of ROCK2 (O75116 whole entry, species assumed): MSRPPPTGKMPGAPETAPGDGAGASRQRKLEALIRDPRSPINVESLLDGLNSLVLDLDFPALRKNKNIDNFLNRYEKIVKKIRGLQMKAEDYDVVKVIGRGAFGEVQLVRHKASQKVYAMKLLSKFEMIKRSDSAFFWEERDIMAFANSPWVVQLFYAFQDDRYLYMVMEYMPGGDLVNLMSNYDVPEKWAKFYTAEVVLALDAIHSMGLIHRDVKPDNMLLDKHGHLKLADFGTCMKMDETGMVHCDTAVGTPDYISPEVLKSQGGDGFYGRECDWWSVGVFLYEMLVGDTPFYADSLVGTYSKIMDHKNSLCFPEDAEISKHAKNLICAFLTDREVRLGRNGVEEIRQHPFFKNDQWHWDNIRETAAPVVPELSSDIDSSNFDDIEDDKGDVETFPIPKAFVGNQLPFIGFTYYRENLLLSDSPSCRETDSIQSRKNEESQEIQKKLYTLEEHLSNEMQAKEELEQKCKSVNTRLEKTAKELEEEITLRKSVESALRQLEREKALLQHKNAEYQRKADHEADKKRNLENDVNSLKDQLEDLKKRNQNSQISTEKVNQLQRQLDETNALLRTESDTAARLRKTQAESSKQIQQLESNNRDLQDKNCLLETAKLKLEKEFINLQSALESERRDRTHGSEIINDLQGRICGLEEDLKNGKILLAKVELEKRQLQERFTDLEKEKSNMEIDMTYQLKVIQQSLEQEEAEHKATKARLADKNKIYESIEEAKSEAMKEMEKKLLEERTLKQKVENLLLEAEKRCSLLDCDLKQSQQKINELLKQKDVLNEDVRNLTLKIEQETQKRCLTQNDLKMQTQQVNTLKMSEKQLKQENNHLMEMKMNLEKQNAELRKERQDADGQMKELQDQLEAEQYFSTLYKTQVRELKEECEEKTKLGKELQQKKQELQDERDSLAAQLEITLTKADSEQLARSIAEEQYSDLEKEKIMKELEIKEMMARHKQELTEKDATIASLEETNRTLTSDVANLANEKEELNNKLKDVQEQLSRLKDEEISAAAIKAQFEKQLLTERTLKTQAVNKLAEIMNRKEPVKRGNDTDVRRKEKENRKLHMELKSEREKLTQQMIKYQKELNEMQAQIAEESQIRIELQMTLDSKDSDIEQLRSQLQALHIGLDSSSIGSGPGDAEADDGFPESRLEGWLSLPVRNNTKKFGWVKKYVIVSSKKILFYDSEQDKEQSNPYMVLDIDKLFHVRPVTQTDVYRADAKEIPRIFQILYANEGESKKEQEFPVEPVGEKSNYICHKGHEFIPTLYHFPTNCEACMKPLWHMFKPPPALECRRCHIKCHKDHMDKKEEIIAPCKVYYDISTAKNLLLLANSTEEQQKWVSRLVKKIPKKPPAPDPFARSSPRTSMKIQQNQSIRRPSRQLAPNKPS
In turn, `Cc1nn(-c2ccc(-c3cn[nH]c3)cc2)c(=O)n1Cc1cccc(C#N)c1` [Example 103, 3-((1-(4-(1H-pyrazol-4-yl)phenyl)-3-methyl-5-oxo-1H-1,2,4-triazol-4(5H)-yl)methyl)benzonitrile] registered an IC50 of 250 to 2000 nM.

`Cc1nn(-c2ccc(-c3cn[nH]c3)cc2)c(=O)n1Cc1cc(F)ccc1F` [Example 82, 1-(4-(1H-pyrazol-4-yl)phenyl)-4-(2,5-difluorobenzyl)-3-methyl-1H-1,2,4-triazol-5(4H)-one] showed an IC50 of 5 to 50 nM.

`COc1cccc(Cn2nc(C)n(-c3ccc(-c4cn[nH]c4)c(OC)c3)c2=O)c1` [Example 61, 4-(3-methoxy-4-(1H-pyrazol-4-yl)phenyl)-1-(3-methoxybenzyl)-3-methyl-1H-1,2,4-triazol-5(4H)-one] gave an IC50 of 50 to 250 nM.

With `CCc1cc(-n2nc(C)n(Cc3cc(F)cc(F)c3)c2=O)ccc1-c1cn[nH]c1` [Example 108, 4-(3,5-difluorobenzyl)-1-(3-ethyl-4-(1H-pyrazol-4-yl)phenyl)-3-methyl-1H-1,2,4-triazol-5(4H)-one], the IC50 was in the range of 5 to 50 nM.

As for `COc1cccc(Cn2c(C(C)(C)O)nn(-c3ccc(-c4cn[nH]c4)cc3)c2=O)c1` [Example 134, 1-(4-(1H-pyrazol-4-yl)phenyl)-3-(2-hydroxypropan-2-yl)-4-(3-methoxybenzyl)-1H-1,2,4-triazol-5(4H)-one], the IC50 is below 5 nM.

Molecule `COc1cccc(Cn2c(C)nn(-c3ccc(-c4cn[nH]c4)c(OC)c3)c2=O)c1` [Example 89, 1-(3-methoxy-4-(1H-pyrazol-4-yl)phenyl)-4-(3-methoxybenzyl)-3-methyl-1H-1,2,4-triazol-5(4H)-one] showed an IC50 below 5 nM.

For `COc1cc(-n2nnn(Cc3cccc(F)c3)c2=O)ccc1-c1cn[nH]c1` [Example 180, 1-(3-fluorobenzyl)-4-(3-methoxy-4-(1H-pyrazol-4-yl)phenyl)-1H-tetrazol-5(4H)-one], the IC50 lay within 5 to 50 nM.

In turn, `COc1cc(-c2cn[nH]c2)ccc1-n1c(C)nn(Cc2cccc(F)c2)c1=O` [Example 74, 1-(3-fluorobenzyl)-4-(2-methoxy-4-(1H-pyrazol-4-yl)phenyl)-3-methyl-1H-1,2,4-triazol-5(4H)-one] yielded an IC50 of 250 to 2000 nM.

As for `COc1cc(-n2nc(C)n(Cc3cccc(F)c3)c2=O)ccc1-c1cn[nH]c1` [Example 90, 4-(3-fluorobenzyl)-1-(3-methoxy-4-(1H-pyrazol-4-yl)phenyl)-3-methyl-1H-1,2,4-triazol-5(4H)-one], the IC50 was below 5 nM.

For `COc1cc(-n2c(C)nn(C(C)c3ccccc3)c2=O)ccc1-c1cn[nH]c1` (centres unmarked) [Example 62, 4-(3-methoxy-4-(1H-pyrazol-4-yl)phenyl)-3-methyl-1-(1-phenylethyl)-1H-1,2,4-triazol-5(4H)-one], the IC50 lay within 250 to 2000 nM.

`Cc1nn(-c2ccc(-c3cn[nH]c3)cc2)c(=O)n1C(C)c1ccccc1` (centres unmarked) [Example 84, 1-(4-(1H-pyrazol-4-yl)phenyl)-3-methyl-4-(1-phenylethyl)-1H-1,2,4-triazol-5(4H)-one] had an IC50 of 50 to 250 nM.

Molecule `COc1cc(-n2nc(C)n(Cc3c(F)cccc3F)c2=O)ccc1-c1cn[nH]c1` [Example 98, 4-(2,6-difluorobenzyl)-1-(3-methoxy-4-(1H-pyrazol-4-yl)phenyl)-3-methyl-1H-1,2,4-triazol-5(4H)-one] gave an IC50 of 5 to 50 nM.

`COc1cc(-n2ncn(Cc3ccc(F)cc3)c2=O)ccc1-c1cn[nH]c1` [Example 38, 4-(4-fluorobenzyl)-1-(3-methoxy-4-(1H-pyrazol-4-yl)phenyl)-1H-1,2,4-triazol-5(4H)-one] yielded an IC50 of 50 to 250 nM.

As to `Cc1nn(Cc2ccccc2)c(=O)n1-c1ccc(-c2cn[nH]c2)cc1` [Example 59, 4-(4-(1H-pyrazol-4-yl)phenyl)-1-benzyl-3-methyl-1H-1,2,4-triazol-5(4H)-one], the IC50 is 250 to 2000 nM.

Regarding `COc1cc(Cn2cnn(-c3ccc(-c4cn[nH]c4)cc3)c2=O)cc(OC)c1` [Example 49, 1-(4-(1H-pyrazol-4-yl)phenyl)-4-(3,5-dimethoxybenzyl)-1H-1,2,4-triazol-5(4H)-one], the IC50 lay within 250 to 2000 nM.

Regarding `COc1cccc(Cn2nc(C)n(-c3ccc(-c4cn[nH]c4)cc3)c2=O)c1` [Example 69, 4-(4-(1H-pyrazol-4-yl)phenyl)-1-(3-methoxybenzyl)-3-methyl-1H-1,2,4-triazol-5(4H)-one], the IC50 fell in the range of 250 to 2000 nM.

In turn, `COc1cc(Cn2cnn(-c3ccc(-c4cn[nH]c4)cc3)c2=O)ccc1F` [Example 50, 4-[(4-fluoro-3-methoxyphenyl)methyl]-1-[4-(1H-pyrazol-4-yl)phenyl]-4,5-dihydro-1H-1,2,4-triazol-5-one] returned a concentration for half-maximal inhibition (IC50) below 5 nM.

In turn, `O=c1n(-c2ccc(-c3cn[nH]c3)cc2)cnn1Cc1cc(F)ccc1F` [Example 4, 4-(4-(1H-pyrazol-4-yl)phenyl)-1-(2,5-difluorobenzyl)-1H-1,2,4-triazol-5(4H)-one] returned an IC50 of 250 to 2000 nM.

`COc1cc(F)cc(Cn2cnn(-c3ccc(-c4cn[nH]c4)c(OC)c3)c2=O)c1` [Example 26, 4-(3-fluoro-5-methoxybenzyl)-1-(3-methoxy-4-(1H-pyrazol-4-yl)phenyl)-1H-1,2,4-triazol-5(4H)-one] came in with an IC50 below 5 nM.

For `O=c1n(-c2ccc(-c3cn[nH]c3)cc2)nc(CO)n1Cc1cc(F)cc(F)c1` [Example 130, 1-(4-(1H-pyrazol-4-yl)phenyl)-4-(3,5-difluorobenzyl)-3-(hydroxymethyl)-1H-1,2,4-triazol-5(4H)-one], the IC50 fell in the range of 5 to 50 nM.

The molecule `COc1cccc(C(C)n2c(C)nn(-c3ccc(-c4cn[nH]c4)cc3)c2=O)c1` (single isomer, unassigned) [Example 119, 1-(4-(1H-pyrazol-4-yl)phenyl)-4-(1-(3-methoxyphenyl)ethyl)-3-methyl-1H-1,2,4-triazol-5(4H)-one] displayed an IC50 of 5 to 50 nM.

Molecule `O=c1n(Cc2ccccc2)cnn1-c1ccc(-c2cn[nH]c2)cc1` [Example 17, 1-(4-(1H-pyrazol-4-yl)phenyl)-4-benzyl-1H-1,2,4-triazol-5(4H)-one] registered an IC50 of 5 to 50 nM.

`COc1cccc(Cn2c(CN(C)C)nn(-c3ccc(-c4cn[nH]c4)cc3)c2=O)c1` [Example 142, 1-(4-(1H-pyrazol-4-yl)phenyl)-3-((dimethylamino)methyl)-4-(3-methoxybenzyl)-1H-1,2,4-triazol-5(4H)-one] had an IC50 of 5 to 50 nM.

Molecule `O=c1n(-c2ccc(-c3cn[nH]c3)cc2)nc(CO)n1Cc1ccccc1` [Example 126, 1-(4-(1H-pyrazol-4-yl)phenyl)-4-benzyl-3-(hydroxymethyl)-1H-1,2,4-triazol-5(4H)-one] had an IC50 of 5 to 50 nM.

The molecule `COc1cc(-n2ncn(C(C)c3ccccc3)c2=O)ccc1-c1cn[nH]c1` (centres unmarked) [Example 27, 1-(3-methoxy-4-(1H-pyrazol-4-yl)phenyl)-4-(1-phenylethyl)-1H-1,2,4-triazol-5(4H)-one] returned an IC50 below 5 nM.

`COc1cc(Cn2c(CO)nn(-c3ccc(-c4cn[nH]c4)cc3)c2=O)cc(OC)c1` [Example 127, 1-(4-(1H-pyrazol-4-yl)phenyl)-4-(3,5-dimethoxybenzyl)-3-(hydroxymethyl)-1H-1,2,4-triazol-5(4H)-one] gave an IC50 of 50 to 250 nM.

`COc1cccc(C(C)n2cnn(-c3ccc(-c4cn[nH]c4)cc3)c2=O)c1` (single isomer, unassigned) [Example 47, 1-(4-(1H-pyrazol-4-yl)phenyl)-4-(1-(3-methoxyphenyl)ethyl)-1H-1,2,4-triazol-5(4H)-one] came in with an IC50 of 5 to 50 nM.

The molecule `COc1cc(-n2nnn(Cc3ccccc3)c2=O)ccc1-c1cn[nH]c1` [Example 179, 1-benzyl-4-(3-methoxy-4-(1H-pyrazol-4-yl)phenyl)-1H-tetrazol-5(4H)-one] registered an IC50 of 50 to 250 nM.

Turning to `COc1ccc(F)cc1Cn1cnn(-c2ccc(-c3cn[nH]c3)cc2)c1=O` [Example 52, 1-(4-(1H-pyrazol-4-yl)phenyl)-4-(5-fluoro-2-methoxybenzyl)-1H-1,2,4-triazol-5(4H)-one], the IC50 is 250 to 2000 nM.

`CCc1cc(-n2ncn(Cc3cccc(C#N)c3)c2=O)ccc1-c1cn[nH]c1` [Example 41, 3-((1-(3-ethyl-4-(1H-pyrazol-4-yl)phenyl)-5-oxo-1H-1,2,4-triazol-4(5H)-yl)methyl)benzonitrile] had an IC50 of 250 to 2000 nM.

The molecule `COc1cc(Cn2c(C)nn(-c3ccc(-c4cn[nH]c4)cc3)c2=O)ccc1F` [Example 121, 1-(4-(1H-pyrazol-4-yl)phenyl)-4-(4-fluoro-3-methoxybenzyl)-3-methyl-1H-1,2,4-triazol-5(4H)-one] came in with an IC50 below 5 nM.

In the case of `COc1cc(-n2nc(C)n(C(C)c3ccccc3)c2=O)ccc1-c1cn[nH]c1` (centres unmarked) [Example 93, 1-(3-methoxy-4-(1H-pyrazol-4-yl)phenyl)-3-methyl-4-(1-phenylethyl)-1H-1,2,4-triazol-5(4H)-one], the IC50 was in the range of 5 to 50 nM.

Regarding `COc1ccc(F)cc1Cn1c(C)nn(-c2ccc(-c3cn[nH]c3)cc2)c1=O` [Example 123, 1-(4-(1H-pyrazol-4-yl)phenyl)-4-(5-fluoro-2-methoxybenzyl)-3-methyl-1H-1,2,4-triazol-5(4H)-one], the IC50 lay in the range of 50 to 250 nM.

`COc1cc(-n2nnn(Cc3cccc(C#N)c3)c2=O)ccc1-c1cn[nH]c1` [Example 185, 3-((4-(3-methoxy-4-(1H-pyrazol-4-yl)phenyl)-5-oxo-4,5-dihydro-1H-tetrazol-1-yl)methyl)benzonitrile] yielded an IC50 of 250 to 2000 nM.

In the case of `CC(C)(O)c1nn(-c2ccc(-c3cn[nH]c3)cc2)c(=O)n1Cc1cc(F)cc(F)c1` [Example 137, 1-(4-(1H-pyrazol-4-yl)phenyl)-4-(3,5-difluorobenzyl)-3-(2-hydroxypropan-2-yl)-1H-1,2,4-triazol-5(4H)-one], the IC50 lay within 5 to 50 nM.
